Source: patent publication EP0915099A1, “Antiparallel oligopeptides and hydrophobically complementary oligopeptides, matrices containing them and use thereof in the purification and detection of subtypes of alpha interferon” (ALFA WASSERMANN S.p.A., priority 1997, dated 1999)

Tested on: subtypes of Hu-IFNα
Experiment: affinity of the peptides in solution and bound to solid supports (affinity chromatography)
Format: binding, human
Details: both in solution and bound to solid supports
Source text: Therefore they can be used, when bound to suitable matrices on solid supports, in affinity chromatography for the separation and purification of the subtype Hu-IFNα8. Moreover, when conveniently functionalized, they can be used for the specific detection of Hu-IFNα8 in analytical techniques like the detection of compounds splitted in SDS-PAGE and transferred on nitrocellulose sheets (SDS-PAGE-blotting) or the detection of compounds immobilized on solid supports (enzyme linked immuno sorbent assay or ELISA). Therefore the matrices on solid supports for the affinity chromatography to which the IFNα-AP, IFNω-AP, IFNα-IC and IFNω-IC oligopeptides are linked and the use thereof in the separation and purification of the Hu-IFNα8 protein are a further object of the invention.
Each of the peptides from number 1 to number 6, at the end of the synthesis, has been linked to a solid support useful for affinity chromatographies, preferably made by a polymeric resin based on acrylamide or agarose, and each matrix functionalized in this way has been packed on a chromatographic column on which, at a neutral pH, a mixture of Hu-IFNα having a specific activity between 1 e 100 x 10^5 international units for each milligram of total proteins (IU/mg) and with a Hu-IFNα concentration between 0.1 and 5 x 10^6 IU has been pressed through. […]

| Substance | affinity for subtypes of Hu-IFNα |
| --- | --- |
| H-Gly-Phe-His-Asp-Phe-His-Ser-Asp-Asn-Phe-OH (H-GFHDFHSDNF-OH) [IFNω-AP] | only for some subtypes of Hu-IFNα, mainly for the subtype IFNα8 |
| H-Gly-Ser-His-Asp-Phe-Cys-Ser-Asp-Asn-Leu-OH (H-GSHDFCSDNL-OH) [IFNα-AP] | only for some subtypes of Hu-IFNα, mainly for the subtype IFNα8 |
